Holding throughout (type): cell-based, human
For assay [1], the system named is Bmi1. Kind of assay: Western blot of PRC1 components in MDA-MB-468 cells. As to the method: (§1) (A)(B) Cells were treated with indicated concentration of YC-1 for 24 h (A) or 3 μM of YC-1 for indicated time (B). Cells were harvested and performed with western blotting analysis. […] The levels of protein expression were quantitated and shown under blots. (C) Cells were transfected with EZH2 shRNA for 0, 1, 2, 3, and 4 days and collected for determination of cell viability (left) and protein expression (right). (D)(E) After 4 days of EZH2 knockdown, cells were incubated with 3 μM YC-1 for 4 h and detected cell viability (D) and protein contents (E). (F) Tumor specimens were isolated and protein was extracted for western blot analysis.
(§2) Cells were lysed in PBS containing proteinase inhibitor and phosphatase inhibitors and sonication. Protein concentration was measured using the Bio-Rad protein assay kit (Bio-Rad Laboratories, Hercules, Calif., USA). Lysate protein was separated by electrophoresis of SDS-PAGE and transferred to Immobilon P membrane (EMD Millipore). The membranes were incubated with appropriate primary antibodies and horseradish peroxidase-conjugated secondary antibodies (EMD Millipore). The signaling was visualized using Chemiluminescence substrate kit (EMD Millipore) and collected by the Luminesence image analyzer, LAS4000 (Fuji Photo Film Co., Tokyo, Japan). The band intensities were analyzed and quantified by the Multi Gauge software (Fuji Photo Film).

In assay [2] the test system is Ring1B. Described as above. As for the experimental part: as §1, §2
The subject of assay [3] is Ring1A. Described as above. As for the experimental part: as §1, §2
The test system of assay [4] is 184A1. Nature of the assay: MTT cell viability assay. Particulars: normal mammary epithelial cells 184A1. As to the method: (§3) (A) Cells were treated with indicated concentration of YC-1 for 6, 24, and 48 h. Cell viability was determined by MTT method. (B) MDA-MB-468 cells were treated with 3 μM YC-1 for 0, 6, and 12 h, and then stained with fluorescence diacetate (FDA) and propidium iodide (PI). Cell morphology was assessed by fluorescence microscopy with magnification ×20 (upper 3 rows) or ×40 (lowest row). (C) MDA-MB-468 cells were treated with 3 μM YC-1 for 24 h, cells were lysed and subjected to western blot analysis described in Materials and Methods. β-actin is a loading control. Blots were representative of results from three independent experiments. (D) Cells were treated with vehicle (DMSO, as control) or 3 μM YC-1 for 6 h. The cell cycles were analyzed by flow cytometry. (E) Cells were treated with indicated concentration of YC-1 and then performed with clonogenic assay.
(§4) Human breast cancer cells, MDA-MB-468, MDA-MB-157, MDA-MB-231, MDA-MB-453, and Hs578T, and immortalized mammary epithelial cell lines, 184A1 and MCF-10A, were obtained from American Type Culture Collection (Manassas, Va., USA). MDA-MB-468, MDA-MB-157, MDA-MB-231, and MDA-MB-453 were cultured in DMEM/F12 medium supplemented with 10% FBS, 100 U/ml penicillin, and 100 μg/ml streptomycin. Hs578T was cultured in RPMI 1640 medium containing 10% FBS, 2 mM L-glutamine, 100 U/ml penicillin, and 100 μg/ml streptomycin. 184A1 and MCF-10A were cultured in DMEM/F12 medium supplemented with 5% horse serum, 0.5 μg/ml hydrocortisone, 10 μg/ml insulin, 20 ng/ml epidermal growth factor, 0.1 μg/ml cholera enterotoxin, 2 mM L-glutamine, 100 U/ml penicillin, and 100 μg/ml streptomycin. All cells were maintained in a humidified incubator containing 5% CO2. For hypoxia treatment, cells were incubated in a chamber flushed with 1% 02, 5% CO2, and 94% N2 at 37° C.
(§5) Cell viability was measured by 3-(4,5-Dimethyl-2-thiazolyl)2,5-diphenyl-2H-tetrazolium bromide (MTT) assay.
In general terms: Formazan colour is commonly taken as a measure of viable cells.

The test system of assay [5] is MDA-MB-468. Kind of assay: MTT cell viability assay. The note with it: Homo sapiens, MDA-MB-468. As to the method:
as §3, §4, §5

Assay [6] deals with MCF-10A. Nature of the assay: MTT cell viability assay. Particulars: normal mammary epithelial cells MCF-10A. As to the method:
as §3, §4, §5

The test system of assay [7] is EZH2 Tyr487. Kind of assay: Western blot of EZH2 phosphorylation. The note with it: 3 μM YC-1. As to the method: (A) MDA-MB-468 cells were incubated with 3 μM YC-1 for indicated time. Cells were harvested for the detection of phospho-Akt (Ser473), Akt, and PCNA. (B) Cells were pretreated with LY294002 (LY, 10 μM) for 1 h followed by 3 μM YC-1 induction for 6 h. (C) MDA-MB-468 cells were incubated with 3 μM YC-1 for indicated time. Cells were harvested for the detection of phospho-CDK1 (Thr161), CDK1, phospho-EZH2 ([…]), EZH2, and β-actin expression with western blot analysis. Levels of EZH2 phosphorylation were calculated by phospho-EZH2 normalized by total EZH2. (D) Cells were treated with YC-1 for 6 h in the absence or presence of roscovitine (Rosc, 20 μM). Cells were harvested and analyzed by western blotting for protein expression. (E) CDK1 knockdown of MDA-MB-468 cells were induced with 3 μM YC-1 for 4 h and followed by western blot analysis.
Cells were lysed in PBS containing proteinase inhibitor and phosphatase inhibitors and sonication. Protein concentration was measured using the Bio-Rad protein assay kit (Bio-Rad Laboratories, Hercules, Calif., USA). Lysate protein was separated by electrophoresis of SDS-PAGE and transferred to Immobilon P membrane (EMD Millipore). […] The band intensities were analyzed and quantified by the Multi Gauge software (Fuji Photo Film).
(In general: A western blot detects proteins with antibodies after separation by electrophoresis.)

Assay [8] deals with MDA-MB-468 cells. Kind of assay: Cell cycle analysis by flow cytometry. The note with it: 3 μM YC-1, 6 h post-treatment. As for the experimental part:
as §3
Cells (1×10^6) treated with YC-1 were fixed in cold 70% ethanol overnight. Cells were stained with staining solution (0.5% Triton X-100, 2 mg/ml propidium iodide, 1 mg/ml RNase A in 1×PBS), followed by analysis on a FACSCalibur flow cytometer (BD Biosciences, Mountain View, Calif., USA).

The source of these data is US20140357688A1, “METHOD FOR INHIBITING EZH2 EXPRESSION IN BREAST CANCER CELLS” (Yung Shin Pharm. Ind. Co., Ltd., priority 2013, published 2014).

As a reminder, the IC50 is the concentration that inhibits the measured activity by half. The low end stands for greater potency, the high end for weaker potency.

Take `OCc1ccc(-c2nn(Cc3ccccc3)c3ccccc23)o1` [YC-1, 3-(5′-hydroxymethyl-2′-furyl)-1-benzyl indazole]: the Bmi1 protein result in assay [1] is “decreased”. In addition, the Ring1B protein result in assay [2] is recorded as “decreased”. The Ring1A protein entry in assay [3] was “decreased”. The “effect on cell viability” value in assay [4] and in assay [6] was “no effect” in each case. The IC50 in assay [5] (24 h-incubation) stood at 620 ± 20 nM; in assay [5] (48 h-incubation), 290 ± 20 nM. Also, the “phosphorylation of EZH2 Tyr487” value in assay [7] is reported as “no effect”. For the same molecule, the sub-G1 population in assay [8] (control 5.9%) is listed as 13.5%. The “percentage of cells at the G1 phase” value in assay [8] (control 57.2%) is given as 64.8%.
